# Test results: patent US20260137795A1, “EXATECAN IMMUNOCONJUGATES” (Immunome, Inc., priority 2023, published 2026)
# Counter-ions that a name gives are not always drawn.
# Legend:
# [1] = Human liver microsome clearance (HLM CL); type: in vitro ADME; parameters: half-life: dose or concentration left out as unconfirmed; details: for half-life: human, microsomes; for HLM Cl T1/2: human liver microsome clearance, 60 min incubation, NADPH
# Procedure: Working solution is prepared by adding 5 μL of compound and control stock solution (10 mM in dimethyl sulfoxide, DMSO) to 495 μL of acetonitrile (ACN) (intermediate solution concentration: 100 μM, 99% CAN and 1% DMSO. The appropriate concentrations of microsome working solutions are prepared in 100 mM potassium phosphate buffer. After reaction plates containing mixtures of compound and microsomes are pre-incubated at 37° C., for 10 min. […] of 2 mM of NADPH and 2 mM of MgCl2 solution is added to start the reaction. The final concentrations of incubation medium are as follows: microsome-0.5 mg protein/mL, test compound/control […], NADPH—1 mM, MgCl2—1 mM, acetonitrile 0.99%, DMSO 0.01%. Incubations are performed at 37° C., for 60 min. Samples are taken out at T0, T5, T15, T30, T45 and T60, which is added intermediately to the ice-cold stop solution (acetonitrile with 200) ng/ml of tobutamide and labetalol as internal standard) (125 μl), shaken for 10 min, centrifuged at 4000 rpm for 20 min at 4° C. Analytical plates are analyzed by LCMS.
# Human liver microsome clearance assay assess metabolism by the cytochrome P450 system (phase I enzymes). These enzymes oxidize substrates by incorporating oxygen atoms into hydrocarbons, thus causing the introduction of hydroxyl groups, or N- O- and S-dealkylation of substrates and forming more polar products easier to be cleared. Human hepatocyte clearance assay measures more broadly the overall cellular metabolism of the test compound (phase I and phase II enzyme pathways). Phase II enzymes catalyze the conjugation reaction of xenobiotic metabolites and charged species, such as glutathione, sulfate, glycine, or glucuronic acid to form even more polar compounds for easier clearance.
# physchem = assay: physchem; parameters: dose or concentration left out as unconfirmed; details: PAMPA
# [2] = Human hepatocyte clearance (HHEP CL); type: in vitro ADME; parameters: half-life: dose or concentration left out as unconfirmed; details: for half-life: both sexes, human; for HHEP Cl T1/2: human hepatocytes intrinsic clearance, 90 min incubation
# Procedure: Suspensions of human hepatocytes (from 10 mixed gender human donors, final concentration 0.5×10^6 cell/mL) in Williams' E medium are incubated for 90 min with a test compound (0.90% acetonitrile and 0.10% DMSO, final concentration […]) and positive controls (7-Ethoxycoumarin, 7-Hydroxycoumarin, 0.90% acetonitrile and 0.10% DMSO, final concentration […]), with constant shaking at about 600 rpm at 37° C., in an incubator at 5% CO2 and 95% humidity. The total volume of incubation was 200 μL. A sample ([…]) is taken out at TO, 15, 30, 60 and 90 min, which is added intermediately to the ice-cold stop solution (acetonitrile with 200 ng/ml of tobutamide and labetalol as internal standard) (125 μl), and vortexed at 500 rpm for 10 min, centrifuged at 3220×g for 20 min at 4° C. Analytical plates are sealed and stored at 4° C., until LCMS analysis. Viability of hepatocytes at pre-incubation is determined to be 84.5%.
# Jeko-1 = assay: CTG assay of payloads (CellTiter-Glo cell viability); type: cell-based
# Text: The CTG assay is a method of determining the number of viable cells in culture based on quantitation of the ATP present, an indicator of metabolically active cells. The cell assay requires the addition of a single reagent, Cell Titer Glo, in which cells are lysed and generation of a luminescent signal is produced. The luminescent signal is proportional to the amount of ATP present. The amount of ATP is directly proportional to the number of cells present in culture. For our assay, cells are ensured to be in log-phase for either Jeko-1 or MDA-MB-468. Cells are transferred to 96 wells and treated with compounds in three-fold serial dilution starting from […] (10 points dilution), for 72 h. Cell viability is analyzed with CellTiter-Glo® Luminescent Cell Viability Assay (Promega) following manufactures' instruction. Percentage of viable cells in each compound concentration is determined by normalizing with the luminescence of vehicle control and plotted into percentage of viability versus dose response curve by nonlinear fit in GraphPad Prism software.
# [3] = PAMPA (Parallel Artificial Membrane Permeability Assay); parameters: dose or concentration left out as unconfirmed; details: pH 7.4
# [4] = AC-SINS self-interaction (antibody developability); type: physicochemical; details: FIG. 19
# Procedure: Antibody developability was assessed by performing an AC-SINS assay and evaluating the potential for self-interaction.
# An initial assessment of antibody developability was performed by AC-SINS to evaluate the potential for self-interaction (FIG. 19).
Compound,half-life [1],Papp (physchem; pH 5),Papp (physchem; pH 7.4),half-life ([2]; hepatocytes),"IC50 (Jeko-1; Homo sapiens, JeKo-1, 72 h)",HLM Cl T1/2 [1],HHEP Cl T1/2 [2],IC50 (Jeko-1; 72 h),Papp [3],"half-life ([2]; hepatocytes in suspension, read-out: HHEP Cl T1/2)",AC-SINS shift / self-interaction [4]
"CC[C@@]1(O)C(=O)OCc2c1cc1n(c2=O)Cc2c-1nc1cc(F)c(C)c3c1c2[C@H]([C@H](CO)NC(C)C)CC3 (single isomer, unassigned) [Compound 17-114]",0.035 h,18.3 ×10⁻⁶ cm/s,8 ×10⁻⁶ cm/s,0.8 h,1.9 nM,–,–,–,–,–,–
"CC[C@@]1(O)C(=O)OCc2c1cc1n(c2=O)Cc2c-1nc1cc(F)c(C)c3c1c2[C@@H]([C@@H](N)CO)CC3 (single isomer, unassigned) [Compound 16-102, hydrochloride]",2.37 h,–,0.02 ×10⁻⁶ cm/s,1.75 h,27.7 nM,–,–,–,–,–,–
"CC[C@@]1(O)C(=O)OCc2c1cc1n(c2=O)Cc2c-1nc1cc(F)c(C)c3c1c2[C@@H]([C@@H](CO)NC(C)C)CC3 (single isomer, unassigned) [Compound 17-113]",0.533 h,26.9 ×10⁻⁶ cm/s,9.7 ×10⁻⁶ cm/s,2.42 h,4.2 nM,–,–,–,–,–,–
"CC[C@@]1(O)C(=O)OCc2c1cc1n(c2=O)Cc2c-1nc1cc(F)c(C)c3c1c2[C@@H]([C@H](N)CO)CC3 (single isomer, unassigned) [Compound 16-105, hydrochloride]",> 2.42 h,0.07 ×10⁻⁶ cm/s,0.06 ×10⁻⁶ cm/s,1.87 h,10.2 nM,–,–,–,–,–,–
"CC[C@@]1(O)C(=O)OCc2c1cc1n(c2=O)Cc2c-1nc1cc(F)c(C)c3c1c2[C@@H](NC(=O)CO)CC3 [Dxd, reference compound]",–,–,–,–,–,1.67 h,>3.62 h,0.95 nM,–,–,–
"CCc1c2c(nc3ccc(O)cc13)-c1cc3c(c(=O)n1C2)COC(=O)[C@]3(O)CC [SN-38, reference compound]",–,–,–,–,–,1.35 h,1.28 h,0.92 nM,–,–,–
"CC[C@@]1(O)C(=O)OCc2c1cc1n(c2=O)Cc2c-1nc1cc(F)c(C)c3c1c2[C@@H]([C@@H](CCO)N(C)C)CC3 (single isomer, unassigned) [Compound 15-97]",0.6 h,36.6 ×10⁻⁶ cm/s,15.7 ×10⁻⁶ cm/s,1.88 h,0.3 nM,–,–,–,–,–,–
"CC[C@@]1(O)C(=O)OCc2c1cc1n(c2=O)Cc2c-1nc1cc(F)c(C)c3c1c2[C@H]([C@H](N)CO)CC3 (single isomer, unassigned) [Compound 16-111, hydrochloride]",1.72 h,0.03 ×10⁻⁶ cm/s,0.04 ×10⁻⁶ cm/s,2.22 h,17.6 nM,–,–,–,–,–,–
"CC[C@@]1(O)C(=O)OCc2c1cc1n(c2=O)Cc2c-1nc1cc(F)c(C)c3c1c2[C@@H]([C@H](CCO)NC(C)C)CC3 (single isomer, unassigned) [Compound 14-92]",0.95 h,17.7 ×10⁻⁶ cm/s,8.4 ×10⁻⁶ cm/s,> 3.62 h,1.7 nM,–,–,–,–,–,–
"CC[C@@]1(O)C(=O)OCc2c1cc1n(c2=O)Cc2c-1nc1cc(F)c(C)c3c1c2[C@@H]([C@H](CO)NC(C)C)CC3 (single isomer, unassigned) [Compound 17-112]",1.03 h,14.4 ×10⁻⁶ cm/s,6.3 ×10⁻⁶ cm/s,> 3.62 h,17 nM,–,–,–,–,–,–
"CC[C@@]1(O)C(=O)OCc2c1cc1n(c2=O)Cc2c-1nc1cc(F)c(C)c3c1c2[C@H]([C@H](CCO)NC(C)C)CC3 (single isomer, unassigned) [Compound 14-94]",0.112 h,16.5 ×10⁻⁶ cm/s,7.5 ×10⁻⁶ cm/s,1.13 h,1.6 nM,–,–,–,–,–,–
CC[C@@]1(O)C(=O)OCc2c1cc1n(c2=O)Cc2c-1nc1cc(F)c(C)c3c1c2[C@@H](N)CC3 [Exatecan],1.25 h,> 107 ×10⁻⁶ cm/s,–,–,0.4 nM,–,–,–,16.3 ×10⁻⁶ cm/s,2.38 h,–
"CC[C@@]1(O)C(=O)OCc2c1cc1n(c2=O)Cc2c-1nc1cc(F)c(C)c3c1c2[C@@H]([C@H](CCO)N(C)C)CC3 (single isomer, unassigned) [Compound 15-96]",1.6 h,16.7 ×10⁻⁶ cm/s,15.6 ×10⁻⁶ cm/s,> 3.62 h,0.52 nM,–,–,–,–,–,–
Adalimumab,–,–,–,–,–,–,–,–,–,–,low shift
"CC[C@@]1(O)C(=O)OCc2c1cc1n(c2=O)Cc2c-1nc1cc(F)c(C)c3c1c2[C@H]([C@@H](N)CO)CC3 (single isomer, unassigned) [Compound 16-108, hydrochloride]",1.83 h,–,0.002 ×10⁻⁶ cm/s,2.1 h,8.3 nM,–,–,–,–,–,–
"CC[C@@]1(O)C(=O)OCc2c1cc1n(c2=O)Cc2c-1nc1cc(F)c(C)c3c1c2[C@H]([C@@H](CO)NC(C)C)CC3 (single isomer, unassigned) [Compound 17-115]",0.1 h,10.5 ×10⁻⁶ cm/s,4.8 ×10⁻⁶ cm/s,1.5 h,16 nM,–,–,–,–,–,–
"CC[C@@]1(O)C(=O)OCc2c1cc1n(c2=O)Cc2c-1nc1cc(F)c(C)c3c1c2[C@@H]([C@@H](CCO)NC(C)C)CC3 (single isomer, unassigned) [Compound 14-93]",0.767 h,20.6 ×10⁻⁶ cm/s,9.2 ×10⁻⁶ cm/s,3.08 h,2.6 nM,–,–,–,–,–,–
"CC[C@@]1(O)C(=O)OCc2c1cc1n(c2=O)Cc2c-1nc1cc(F)c(C)c3c1c2[C@H]([C@@H](CCO)N(C)C)CC3 (single isomer, unassigned) [Compound 15-99]",0.967 h,14.9 ×10⁻⁶ cm/s,8.5 ×10⁻⁶ cm/s,3.47 h,0.32 nM,–,–,–,–,–,–
"CC[C@@]1(O)C(=O)OCc2c1cc1n(c2=O)Cc2c-1nc1cc(F)c(C)c3c1c2[C@H]([C@@H](CCO)NC(C)C)CC3 (single isomer, unassigned) [Compound 14-95]",0.483 h,12.7 ×10⁻⁶ cm/s,6.6 ×10⁻⁶ cm/s,1.42 h,1.7 nM,–,–,–,–,–,–
"CC[C@@]1(O)C(=O)OCc2c1cc1n(c2=O)Cc2c-1nc1cc(F)c(C)c3c1c2[C@H]([C@H](CCO)N(C)C)CC3 (single isomer, unassigned) [Compound 15-98]",0.112 h,27 ×10⁻⁶ cm/s,11.3 ×10⁻⁶ cm/s,1.3 h,0.25 nM,–,–,–,–,–,–
